Experimental findings from patent US20230416225A1, “DIAMINOPYRIMIDINE CARBOXAMIDE INHIBITORS OF HPK1” (MERCK SHARP & DOHME LLC, priority 2020, published 2023) are described below.

The assay concerns the target T1, Human HPK1, catalytic domain (Homo sapiens, UniProt Q92918).
T1 construct: purchased Carna
T1 sequence (Q92918 1-346): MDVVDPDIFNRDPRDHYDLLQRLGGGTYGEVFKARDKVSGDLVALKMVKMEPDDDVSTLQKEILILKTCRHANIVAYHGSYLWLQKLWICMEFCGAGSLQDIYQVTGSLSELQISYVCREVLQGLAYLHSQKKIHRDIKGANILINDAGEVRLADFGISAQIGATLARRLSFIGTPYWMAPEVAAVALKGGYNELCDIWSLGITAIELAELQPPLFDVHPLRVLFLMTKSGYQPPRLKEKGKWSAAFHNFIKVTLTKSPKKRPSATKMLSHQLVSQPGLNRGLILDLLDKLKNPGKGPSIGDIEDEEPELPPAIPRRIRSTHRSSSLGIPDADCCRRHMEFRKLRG
As to the kind of experiment: HPK1-SLP76 TR-FRET assay. In kind it is biochemical. As to conditions: 75 pM HPK1, 10 uM ATP, 10 nM SLP76, 30 min compound pre-incubation. Background: Time-resolved FRET reads energy transfer from a long-lived donor to a nearby acceptor.

Consider `COc1nn(C)cc1Nc1ncc(C(N)=O)c(Nc2cccc3c2CCNC3)n1` [Example 7-9, 2-[(3-methoxy-1-methyl-1H-pyrazol-4-yl)amino]-4-[(1,2,3,4-tetrahydroisoquinolin-5-yl)amino]pyrimidine-5-carboxamide], for which the half-maximal inhibitory concentration (IC50) was 1.17 nM.
`CCOc1ccccc1Nc1nc(Nc2cc3c(cc2OC)CCN(C)C3)ncc1C(N)=O` [Example 7-112, 4-[(2-ethoxyphenyl)amino]-2-[(6-methoxy-2-methyl-1,2,3,4-tetrahydroisoquinolin-7-yl)amino]pyrimidine-5-carboxamide]: 0.03 nM corresponded to half-maximal inhibition (IC50).
Then `COc1cc2c(cc1Nc1ncc(C(N)=O)c(Nc3cccc4c3CCN(CC(F)(F)F)C4)n1)CN(C)CC2` [Example 7-29, 2-[(6-methoxy-2-methyl-1,2,3,4-tetrahydroisoquinolin-7-yl)amino]-4-{[2-(2,2,2-trifluoroethyl)-1,2,3,4-tetrahydroisoquinolin-5-yl]amino}pyrimidine-5-carboxamide], with 0.35 nM; and `CS(=O)(=O)c1ccc(Nc2ncc(C(N)=O)c(Nc3c(F)cccc3CO)n2)cc1` [Example 7-65, 4-{[2-fluoro-6-(hydroxymethyl)phenyl]amino}-2-{[4-(methylsulfonyl)phenyl]amino}py-rimidine-5-carboxamide], with 91.5 nM.
With `Cn1cc([C@@H]2C[C@H]2C(=O)Nc2ncc(C(N)=O)c(Nc3ccccc3Br)n2)cn1` (racemic) [Example 22-1, 4-((2-bromophenyl)amino)-2-((trans)-2-(1-methyl-1H-pyrazol-4-yl)cyclopropane-1-carboxamido)pyrimidine-5-carboxamide], the midpoint of inhibition, the IC50, lay at 370 nM.
With `COc1cc2c(cc1Nc1ncc(C(N)=O)c(Nc3ccccc3Br)n1)CN(C1CC(CO)C1)CC2` (single isomer, unassigned) [Example 9-4, 4-((2-bromophenyl)amino)-2-((2-(3-(hydroxymethyl)cyclobutyl)-6-methoxy-1,2,3,4-tetrahydroisoquinolin-7-yl)amino)pyrimidine-5-carboxamide], inhibition was half-maximal at 0.18 nM (IC50).
Turning to `COc1cc2c(cc1Nc1ncc(C(N)=O)c(NCc3cccc(C(F)(F)F)c3)n1)CN(C)CC2` [Example 26-35, 2-[(6-methoxy-2-methyl-1,2,3,4-tetrahydroisoquinolin-7-yl)amino]-4-({[3-(trifluoromethyl)phenyl]methyl}amino)pyrimidine-5-carboxamide], the concentration for half-maximal inhibition (IC50) came to 52.8 nM. Compared with the last compound, the IC50 is about 290-fold higher.
Then `COc1cc2c(cc1Nc1ncc(C(N)=O)c(Nc3cc(C)nn3Cc3ccccc3)n1)CN(C)CC2` [Example 7-91, 4-((1-benzyl-3-methyl-1H-pyrazol-5-yl)amino)-2-((6-methoxy-2-methyl-1,2,3,4-tetrahydroisoquinolin-7-yl)amino)pyrimidine-5-carboxamide], with 38.6 nM; and `COc1cc2c(cc1Nc1ncc(C(N)=O)c(Nc3ccccc3C(F)(F)F)n1)C(C1CC1)N(C)CC2` (single isomer, unassigned) [Example 20-1, 2-((1-cyclopropyl-6-methoxy-2-methyl-1,2,3,4-tetrahydroisoquinolin-7-yl)amino)-4-((2-(trifluoromethyl)phenyl)amino)pyrimidine-5-carboxamide], with 1.62 nM.
In turn, `N#CC1(c2cccc(Nc3ncc(C(N)=O)c(Nc4cccc5c4CCNC5=O)n3)c2)CC1` [Example 25-4, 2-{[3-(1-cyanocyclopropyl)phenyl]amino}-4-[(1-oxo-1,2,3,4-tetrahydroisoquinolin-5-yl)amino]pyrimidine-5-carboxamide] had an IC50 of 2.78 nM.
In the case of `CCOc1ccccc1CNc1nc(Nc2cc3c(cc2OC)CCN(C)C3)ncc1C(N)=O` [Example 26-23, 4-{[(2-ethoxyphenyl)methyl]amino}-2-[(6-methoxy-2-methyl-1,2,3,4-tetrahydroisoquinolin-7-yl)amino]pyrimidine-5-carboxamide], the IC50 is 3.69 nM.
With `Cc1cccc(F)c1Nc1nc(Nc2cnn(CC3CC3)c2)ncc1C(N)=O` [Example 4-22, 2-{[1-(cyclopropylmethyl)-1H-pyrazol-4-yl]amino}-4-[(2-fluoro-6-methylphenyl)amino] pyrimidine-5-carboxamide] the figure was 384 nM.
The compound `COc1cc2c(cc1Nc1ncc(C(N)=O)c(Nc3cc(C)nn3CCO)n1)CN(C)CC2` [Example 7-90, 4-((1-(2-hydroxyethyl)-3-methyl-1H-pyrazol-5-yl)amino)-2-((6-methoxy-2-methyl-1,2,3,4-tetrahydroisoquinolin-7-yl)amino)pyrimidine-5-carboxamide] displayed an IC50 of 1.44 nM. Compared with the last compound, the IC50 is about 270-fold lower.
With `COc1cc2c(cc1Nc1ncc(C(N)=O)c(NCc3ccccc3OC(F)(F)F)n1)CN(C)CC2` [Example 26-18, 2-[(6-methoxy-2-methyl-1,2,3,4-tetrahydroisoquinolin-7-yl)amino]-4-({[2-(trifluoromethoxy)phenyl]methyl}amino)pyrimidine-5-carboxamide] the figure was 0.57 nM; with `COc1cc2c(cc1Nc1ncc(C(N)=O)c(Nc3c(F)cc(Br)cc3F)n1)CN(C)CC2` [Example 4-30, 4-[(4-bromo-2,6-difluorophenyl)amino]-2-[(6-methoxy-2-methyl-1,2,3,4-tetrahydroisoquinolin-7-yl)amino]pyrimidine-5-carboxamide], 0.42 nM; with `COc1cc2c(cc1Nc1ncc(C(N)=O)c(Nc3ccccc3Br)n1)CN(CC(F)(F)F)CC2` [Example 10-2, 4-((2-bromophenyl)amino)-2-((6-methoxy-2-(2,2,2--trifluoroethyl)-1,2,3,4-tetrahydroisoquinolin-7-yl)amino)pyrimidine-5-carboxamide], 246 nM.
On to `COc1cc2c(cc1Nc1ncc(C(N)=O)c(Nc3ccccc3CC3(C#N)CC3)n1)CN(C)CC2` [Example 13-8, 4-({2-[(1-cyanocyclopropyl)methyl]phenyl}amino)-2-[(6-methoxy-2-methyl-1,2,3,4-tetrahydroisoquinolin-7-yl)amino]pyrimidine-5-carboxamide], for which the IC50 worked out at 230 nM.
Take `CC(C)(C)c1ccc(Nc2ncc(C(N)=O)c(Nc3cccc4c3CCNC4=O)n2)cc1` [Example 25-35, 2-[(4-tert-butylphenyl)amino]-4-[(1-oxo-1,2,3,4-tetrahydroisoquinolin-5-yl)amino]pyrimidine-5-carboxamide]: half-maximal inhibition (IC50) required 0.3 nM.
With `COc1c(F)cc(Nc2ncc(C(N)=O)c(Nc3cccc4c3CCNC4=O)n2)cc1F` [Example 25-40, 2-[(3,5-difluoro-4-methoxyphenyl)amino]-4-[(1-oxo-1,2,3,4-tetrahydroisoquinolin-5-yl)amino]pyrimidine-5-carboxamide] the figure was 38.7 nM; with `COc1cc2c(cc1Nc1ncc(C(N)=O)c(Nc3ccccc3Br)n1)CN(C(=O)C1CCC1)CC2` [Example 12-9, 4-[(2-bromophenyl)amino]-2-{[2-(cyclobutanecarbonyl)-6-methoxy-1,2,3,4-tetrahydroisoquinolin-7-yl]amino}pyrimidine-5-carboxamide], 172 nM.
Turning to `COc1cc2c(cc1Nc1ncc(C(N)=O)c(Nc3cccc4c3OC(C)(C)C4)n1)CN(C)CC2` [Example 7-14, 4-[(2,2-dimethyl-2,3-dihydro-1-benzofuran-7-yl)amino]-2-[(6-methoxy-2-methyl-1,2,3,4-tetrahydroisoquinolin-7-yl)amino]pyrimidine-5-carboxamide], the IC50 amounted to 0.19 nM.
Then `COc1nn(CC(F)(F)F)cc1Nc1ncc(C(N)=O)c(Nc2cccc3c2CCN(C)C3)n1` [Example 7-62, 2-{[3-methoxy-1-(2,2,2-trifluoroethyl)-1H-pyrazol-4-yl]amino}-4-[(2-methyl-1,2,3,4-tetrahydroisoquinolin-5-yl)amino]pyrimidine-5-carboxamide], with 56 nM.
For the compound `COc1cc2c(cc1Nc1ncc(C(N)=O)c(NCc3c(F)ccc(F)c3F)n1)CN(C)CC2` [Example 26-45, 2-[(6-methoxy-2-methyl-1,2,3,4-tetrahydroisoquinolin-7-yl)amino]-4-{[(2,3,6-trifluorophenyl)methyl]amino}pyrimidine-5-carboxamide], the IC50 came to 0.51 nM. This IC50 is about 110-fold lower than that of the compound before.
Then `COc1cc2c(cc1Nc1ncc(C(N)=O)c(Nc3ccccc3C(=O)Nc3ccccc3)n1)CN(C)CC2` [Example 7-117, 2-((6-methoxy-2-methyl-1,2,3,4-tetrahydroisoquinolin-7-yl)amino)-4-((2-(phenylcarbamoyl)phenyl)amino) pyrimidine-5-carboxamide], with 54.8 nM; and `CC(C)n1cc(Nc2ncc(C(N)=O)c(Nc3cccc4c3CCNC4=O)n2)cn1` [Example 7-50, 4-[(1-oxo-1,2,3,4-tetrahydroisoquinolin-5-yl)amino]-2-{[1-(propan-2-yl)-1H-pyrazol-4-yl]amino}pyrimidine-5-carboxamide], with 6.24 nM.
`CN1Cc2ccc(Nc3ncc(C(N)=O)c(Nc4cccc5c4CCNC5)n3)cc2C1=O` [Example 7-64, 2-[(2-methyl-3-oxo-2,3-dihydro-1H-isoindolin-5-yl)amino]-4-[(1,2,3,4-tetrahydroisoquinolin-5-yl)amino]pyrimidine-5-carboxamide] gave a half-maximal inhibitory concentration (IC50) of 3.65 nM.
Then `COc1cc2c(cc1Nc1ncc(C(N)=O)c(N[C@H]3c4ccccc4C[C@H]3O)n1)CN(C)CC2` [Example 26-63, 4-{[(1S,2R)-2-hydroxy-2,3-dihydro-1H-inden-1-yl]amino}-2-[(6-methoxy-2-methyl-1,2,3,4-tetrahydroisoquinolin-7-yl)amino]pyrimidine-5-carboxamide], with 109 nM; and `COC[C@H]1CCC[C@H]1Nc1nc(Nc2cc3c(cc2OC)CCN(C)C3)ncc1C(N)=O` [Example 26-28, 4-{[(1R,2S)-2-(methoxymethyl)cyclopentyl]amino}-2-[(6-methoxy-2-methyl-1,2,3,4-tetrahydroisoquinolin-7-yl)amino]pyrimidine-5-carboxamide], with 4.92 nM.

As a reminder, the IC50 is the concentration needed to halve the response being measured.
